# Source: patent US20130131321A1, “LIGANDS FOR ANTIBODY AND Fc-FUSION PROTEIN PURIFICATION BY AFFINITY CHROMATOGRAPHY” (GRAFFINITY PHARMACEUTICALS GMBH, priority 2010, published 2013)
# Where two headings read alike, the source gives them in different places.
# Legend:
# [1] = system: human poly-IgG (h-poly-IgG); test: Microtiter plate chromatography of resins, human poly-IgG (bound, yield); assay type: binding
# Tocilizumab = test: Microtiter plate chromatography of resins, Tocilizumab (bound, yield); assay type: binding, humanized
# Bevacizumab [2] = molecular target: T1, Bevacizumab (Homo sapiens, UniProt P01857); test: Microtiter plate chromatography of resins, Bevacizumab whole IgG (bound, yield, selectivity); assay type: binding, humanized
# T1 construct: fused on or other part: humanised anti-VEGF-A VH domain N-terminal of the gamma-1 constant region (engineered, no UniProt entry)
# Bevacizumab [3] = molecular target: T1, Bevacizumab; test: Langmuir isotherms by batch adsorption; assay type: binding, humanized; settings: Bevacizumab in PBS pH 7.3, 25° C., at least 3 h; for Kd: read-out: Kd (dissociation constant, Langmuir isotherm)
# Experimental: Experiments were performed with Bevacizumab as antibody. Parameters of Langmuir isotherms for purified antibody were determined by batch adsorption experiments in 96-well microtiter plates. In each well, 10 μl of sorbent slurry (50% v/v) were mixed with 100 μl of protein solution. Initial concentrations varied from 0.05-5 mg ml^−1 in phosphate-buffered saline (0.15 M NaCl, 20 mM phosphate buffer, pH 7.3; PBS). Reactions were agitated vigorously at 25° C. for at least 3 h. Afterwards, antibody concentration in the supernatents were measured by Bradford assay.
# Parameters of Langmuir isotherms, i.e. dissociation constants Kd and maximum capacities qm, were determined from the measured concentrations in supernatants. Parameters were estimated by numerical fitting of the model equation derived by Chase (4).
# host cell proteins (HCP) = test: Microtiter plate chromatography of resins, host cell proteins (bound); assay type: binding, CHO
# Palivizumab = test: Microtiter plate chromatography of resins, Palivizumab (bound, yield); assay type: binding, humanized
# Bevacizumab Fc fragment = test: Microtiter plate chromatography of resins, Bevacizumab Fc fragment (bound); assay type: binding, humanized; settings: Bevacizumab Fc fragment
# Experimental: (§1) Resins were assessed in packed mode by microtiter plate chromatography. For each column, approximately 30 μl of resin were transferred to a 384-well filter plate and sealed with appropriate top frits.
# (§2) Columns were equilibrated with 6.7 column volumes (cv) of phosphate buffered saline (0.15 M NaCl, 20 mM sodium phosphate, pH 7.3; PBS) prior to injection. Either 3.3 cv of whole IgGs dissolved at 0.75 mg ml^−1, Fab or Fc fragments dissolved at 0.25 mg ml^−1 (all three in PBS) or host cell proteins (HCP) were injected onto columns. Antibody fragments of Bevacizumab (Fab and Fc) were prepared by cleavage of whole IgG with papain protease (3) according to the protocol of the manufacturer. […] Volumes transferred were spun through columns at 50 g for 1-2 min. During injection of samples, acceleration was reduced to 10 g and centrifugation time increased to 5-10 min. Effluent fractions were collected in 384-well plates and concentrations of protein analyzed by Bradford assay. Protein masses mi, mft and me (see below) were calculated as the product of fraction volume and measured protein concentration.
# (§3) The fraction of ‘bound’ protein was calculated as the difference between the total mass of protein injected mi and the mass of protein detected in the flowthrough mft, divided by the total mass of protein injected.
# (§4) the fraction of ‘bound’ protein and the ‘yield’ of protein were calculated for each resin based on data for whole IgG-antibodies. In the case of Bevacizumab fragments and host cell proteins, only the fraction of ‘bound’ protein is given. Selectivity of resins was calculated from data for Bevacizumab Whole IgG and host cell proteins. Due to limited experimental precision, selectivity was truncated beyond values of 10.
# Bevacizumab Fab fragment = test: Microtiter plate chromatography of resins, Bevacizumab Fab fragment (bound); assay type: binding, humanized; settings: Bevacizumab Fab fragment
# Experimental: as §1, §2, §3, §4
# Bevacizumab [4] = test: Microtiter plate chromatography of resins, Bevacizumab whole IgG (bound, yield, selectivity); assay type: binding, humanized
# [5] = fraction of whole IgG Bevacizumab bound to resin
# [6] = mass of whole IgG Bevacizumab eluted / mass injected
# [7] = fraction of injected protein bound to resin
Structure (SMILES),h-poly-IgG Bound (%) [1] [%],h-poly-IgG Yield (%) [1] [%],Tocilizumab Bound (%) (Tocilizumab),Tocilizumab Yield (%) (Tocilizumab),Bevacizumab IgG Bound (%) (Bevacizumab [2]; [5]),Bevacizumab IgG Yield (%) (Bevacizumab [2]; [6]),"qm (maximum capacity, Langmuir isotherm) (Bevacizumab [3]) [mg per ml resin]",HCP Bound (%) (host cell proteins (HCP); host cell proteins),Palivizumab Bound (%) (Palivizumab),Palivizumab Yield (%) (Palivizumab),Bevacizumab Fc Bound (%) (Bevacizumab Fc fragment),Bevacizumab Fab Bound (%) (Bevacizumab Fab fragment),Selectivity (Bevacizumab [4]),also measured
"C#Cc1cncc(C(=O)Nc2ccc(OC)c(C(=O)NCCCN)c2)c1 [Ligand L24, 5-(3-Ethynylpyridin-5-yl)carboxamido-2-methoxybenzoic acid N-(3-aminopropyl)amide]",45,47,41,40,100,97,33,29,24,21,,,,Kd (Bevacizumab [3]): 596 µM
"Cn1nc(C(=O)Nc2cccc(C(=O)NCCCN)c2)cc1-c1ccco1 [Ligand L17, 3-[5-(2-Furyl)-1-methylpyrazol-3-yl]carboxamidobenzoic acid N-(3-aminopropyl)amide]",91,87,97,89,100,94,26,36,81,70,,,,
"COc1ccc(NC(=O)c2cc(-c3ccsc3)n(C)n2)cc1C(=O)NCCCN [Ligand L8, 2-Methoxy-5-[1-methyl-5-(3-thienyl)pyrazol-3-yl]carboxamidobenzoic acid N-(3-aminopropyl)amide]",100,86,100,97,100,96,,44,100,89,99,82,2.3,
"COc1ccc(NC(=O)c2cncc(-c3ccoc3)c2)cc1C(=O)NCCCN [Ligand L22, 5-[3-(3-Furyl)pyridin-5-yl]carboxamido-2-methoxybenzoic acid N-(3-aminopropyl)amide]",63,58,62,58,100,92,29,33,40,34,,,,Kd (Bevacizumab [3]): 373 µM
"COc1ccc(NC(=O)c2cc(-c3cc(Br)cs3)n(C)n2)cc1C(=O)NCCCN [Ligand L2, 5-[5-(4-Bromo-2-thienyl)-1-methylpyrazol-3-yl]carboxamido-2-methoxybenzoic acid N-(3-aminopropyl)amide]",,,100,91,100,96,,59,,,100,100,1.7,
"COc1ccc(NC(=O)c2cc(-c3cccs3)n(C)n2)cc1C(=O)NCCCN [Ligand L6, 2-Methoxy-5-[1-methyl-5-(2-thienyl)pyrazol-3-yl]carboxamidobenzoic acid N-(3-aminopropyl)amide]",94,100,100,102,100,100,,54,98,100,100,79,2.0,
"COc1ccc(NC(=O)c2cncc(-c3cccs3)c2)cc1C(=O)NCCCN [Ligand L5, 2-Methoxy-5-[3-(2-thienyl)pyridin-5-yl]carboxamidobenzoic acid N-(3-aminopropyl)amide]",97,69,100,80,100,96,,48,71,72,84,77,2.0,
"COc1ccc(NC(=O)c2n[nH]c3ccc(Cl)cc23)cc1C(=O)NCCCN [Ligand L4, 5-(5-Chloro-1H-indazol-3-yl)carboxamido-2-methoxybenzoic acid N-(3-aminopropyl)amide]",100,83,100,93,100,98,,57,100,97,100,38,1.8,
"COc1ccc(NC(=O)c2nn(CC(O)CO)c3ccccc23)cc1C(=O)NCCCN (racemic) [Ligand L40, (RS)-5-[1-(2,3-Dihydroxy-1-propyl)indazol-3-ylcarboxamido]-2-methoxybenzoic acid (3-amino-1-propyl)amide]",98,97,90,90,100,100,,22,62,62,,,4.5,
"NCCCNC(=O)c1cccc(C(=O)Nc2nc3ccccc3s2)c1 [Ligand L72, Isophthalic acid N-(3-aminopropyl)-N′-(benzothiazol-2-yl)amide]",,,,,,,,,,,,,2.5,"h-poly-IgG Bound (%) [1, 7]: 90%; h-poly-IgG Yield (%) ([1]; mass eluted / mass injected): 90%; Tocilizumab Bound (%) (Tocilizumab; [7]): 93%; Tocilizumab Yield (%) (Tocilizumab; mass eluted / mass injected): 93%; Bevacizumab IgG Bound (%) (Bevacizumab [2]; fraction of injected whole IgG bound to resin): 100%; Bevacizumab IgG Yield (%) (Bevacizumab [2]; mass eluted / mass injected, whole IgG): 83%; HCP Bound (%) (host cell proteins (HCP); fraction of injected host cell proteins bound to resin): 40%; Palivizumab Bound (%) (Palivizumab; [7]): 91%; Palivizumab Yield (%) (Palivizumab; mass eluted / mass injected): 91%"
